PMC10390775, “CETP inhibitor evacetrapib enters mouse brain tissue” (Frontiers in Pharmacology, 2023)
“And” between values parts separate entries of the source, which are not always exact repeats. Equal entries are not always repeated. Where two headings read alike, the source gives them in different places.

Key:
[1] = cited from earlier work
[2] = continuous administration; ref Small et al., 2015; Nurmohamed et al., 2022; cited from earlier work
[3] = Pharmacokinetics of evacetrapib in plasma, liver and brain after a single tail vein injection (UHPLC-MS-qTOF); format: in vivo, hCETPtg mice (C57BL/6J background); conditions: for Brain peak concentration above plasma IC50: IC50 36 nM in human plasma; for k el: read-out: Kβ (elimination rate constant) (converted); for half-life: read-out: t1/2β (half-life) (converted); for Kp: accounting for residual blood, read-out: Tissue penetration ratio (AUC brain / AUC plasma); for MRT: read-out: MRT (mean residence time); for clearance: read-out: CL (drug clearance) (converted); for Vd: read-out: Vss (volume of distribution at steady state)
Method: The experiment was performed in conformity with the OECD Guidelines 417 ([OECD, 2010]). Male hCETPtg mice were chosen for the pharmacokinetic analysis. Mice were fed Teklad Global Diets #2018 from Envigo, Canada, for 8 weeks starting from birth, followed by a diet change of modified low-fat RD Western diet to match TD.08485 with 1% cholesterol from research diets #D16121201 for a duration of 3–4 weeks. Throughout that period, tap water was provided ad libitum. Initially, evacetrapib was solubilized in 20% of the final solution volume of Kolliphor® EL (pH range 6.0–8.0, cat# C5135) by alternating between 5 min intervals using an ultrasonic water bath at 4°C and a hot water bath at 50°C until complete dissolution. Then, 80% of the final volume was added (isotonic glucose solution 50 g/L glucose containing D-(+)-glucose Sigma cat# G7021 in MilliQ water, sterile filtered).
CETP inhibitor evacetrapib was administered through tail vein injection at doses of 40 mg/kg body weight (BW) or 120 mg/kg BW. Mice weighed 28.42 ± 3.16 g on the day of injection. They were randomly divided into two groups: 24 mice received a dose of 40 mg/kg BW of evacetrapib and the other 24 received a dose of 120 mg/kg BW. Mice from both groups were euthanized at 0, 0.5, 2, 6, 12, and 24 h after injection. Mice euthanized at later time points had continued access to food and water until the end of the experiment. Blood was collected (300–500 µL) at euthanasia for each mouse by cardiac puncture. Blood plasma was extracted using 10 µL of 1 M EDTA pH 8.0 solution in MilliQ water. Brain and liver tissues were collected immediately after euthanasia, rinsed in 0.9% NaCl solution, and snap-frozen in liquid nitrogen. Samples were stored at −80°C until analysis.
Sample preparation and digestion for evacetrapib analysis were performed using UHPLC-MS-qTOF. Working solutions from a stock of evacetrapib were prepared at concentrations of 10 μmol, 100 nmol, 1 nmol, 500 pmol, and 125 pmol per ml of methanol. Working solutions of anacetrapib used as an internal standard were prepared at concentrations of 10 μmol, 100 nmol, and 1 nmol per ml from a stock solution.
Brain and liver samples were homogenized using a polytron supplemented with a carbonate buffer at pH 9.8. The volume was adjusted such that each sample reached a final concentration of 100 mg/ml of buffer. A volume of 0.5 ml of homogenate was transferred to a Pyrex tube and enriched with 100 µL of 1 nmol/ml anacetrapib solution used as an internal standard. Then, samples were extracted twice using 4 ml of saturated ethyl acetate. For each extraction, samples were shaken for 30 min using a lateral shaker, followed by a centrifugation round (20 min, 3,000 rpm, 4°C). Organic phases were collected, combined, and then evaporated until dry under a nitrogen stream in a rotating bath at 40°C. The residues were resuspended in methanol. Samples were vortexed until no residues were left. Resuspended residues for both the brain and liver were then centrifuged (20 min, 3,000 rpm, 4°C). The supernatant was recovered, transferred into new vials, and injected into UHPLC-MS-qTOF. For the plasma measurement, 20 µL of plasma was enriched with 100 µL of 1 nmol/ml anacetrapib solution in a microtube. Evacetrapib was extracted using two steps of ethanol wash (200 µL) followed by an incubation time (30 min, 22°C) and centrifugation (5 min, 16,000 g, 10°C). Samples were dried under a gentle nitrogen stream to separate the liquid phase from the solid phase. The residues were subsequently dissolved in methanol, vortexed until no residues were left, and centrifuged (20 min, 3,000 rpm, 4°C). The supernatant was recovered, transferred into new vials, and injected into UHPLC-MS-qTOF.
Quantification was performed using a seven-point calibration curve with the internal standard correction prepared in the brain, liver, or plasma, respectively. […]

[4] = liver, 120 mg/kg BW i.v., 120 mg/kg
[5] = male, hCETPtg (C57BL/6J background), mouse, brain, iv, 40 mg/kg, brain, 40 mg/kg BW i.v.
[6] = male, hCETPtg (C57BL/6J background), mouse, brain, iv, 120 mg/kg, brain, 120 mg/kg BW i.v.
[7] = male, hCETPtg (C57BL/6J background), mouse, iv, plasma, 40 mg/kg BW i.v.
[8] = male, hCETPtg (C57BL/6J background), mouse, iv, plasma, 120 mg/kg BW i.v.
[9] = male, hCETPtg (C57BL/6J background), mouse, liver, iv, 40 mg/kg, liver, 40 mg/kg BW i.v.
[10] = male, hCETPtg (C57BL/6J background), mouse, liver, iv, 120 mg/kg, liver, 120 mg/kg BW i.v.
[11] = male, hCETPtg (C57BL/6J background), mouse, plasma, iv, 40 mg/kg, plasma, 40 mg/kg BW i.v.
[12] = male, hCETPtg (C57BL/6J background), mouse, plasma, iv, 120 mg/kg, plasma, 120 mg/kg BW i.v.

For Cc1cc(C)c2c(c1)[C@@H](N(Cc1cc(C(F)(F)F)cc(C(F)(F)F)c1)c1nnn(C)n1)CCCN2C[C@H]1CC[C@H](C(=O)O)CC1 [evacetrapib], the Tolerated dose ([1]; rat, in vivo, po) is given as “up to 600 mg/kg BW/day”, the Oral absorption fraction ([1]; rats, oral gavage, ref Takubo et al., 2014, Simic et al., 2017) is given as 25% and the “Accumulation in adipose tissues” value [2] is given as “does not accumulate in adipose tissues”. For the same molecule, the “Peak concentration in the brain after correction for residual blood” value ([3]; 40 mg/kg BW i.v.) was 1.5 µM, the “Av. conc. in brain, calculated (corrected for residual blood)” value ([3]; 40 mg/kg BW i.v., 0 h) was 0.00 nmol/g and the “Av. conc. in brain, measured (not corrected for residual blood)” value ([3]; 40 mg/kg BW i.v., 0 h) was 2.05 nmol/g. The “Av. conc. in brain, calculated (corrected for residual blood)” value ([3]; 40 mg/kg BW i.v., 0.5 h) was 1.5 nmol/g and 1.53 nmol/g, the “Av. conc. in brain, measured (not corrected for residual blood)” value ([3]; 40 mg/kg BW i.v., 0.5 h) was 2.21 nmol/g and the “Av. conc. in brain, calculated (corrected for residual blood)” value ([3]; 40 mg/kg BW i.v., 2 h) was 1.0 nmol/g and 1.03 nmol/g. The “Av. conc. in brain, measured (not corrected for residual blood)” value ([3]; 40 mg/kg BW i.v., 2 h) was 1.41 nmol/g, the “Av. conc. in brain, calculated (corrected for residual blood)” value ([3]; 40 mg/kg BW i.v., 6 h) was 0.5 nmol/g and 0.50 nmol/g and the “Av. conc. in brain, measured (not corrected for residual blood)” value ([3]; 40 mg/kg BW i.v., 6 h) was 0.57 nmol/g. For the same molecule, the “Av. conc. in brain, calculated (corrected for residual blood)” value ([3]; 40 mg/kg BW i.v., 12 h) was 0.1 nmol/g and 0.11 nmol/g, the “Av. conc. in brain, measured (not corrected for residual blood)” value ([3]; 40 mg/kg BW i.v., 12 h) was 0.12 nmol/g and the “Av. conc. in brain, calculated (corrected for residual blood)” value ([3]; 40 mg/kg BW i.v., 24 h) was 0.00 nmol/g. The “Av. conc. in brain, measured (not corrected for residual blood)” value ([3]; 40 mg/kg BW i.v., 24 h) was 0.00 nmol/g, the “Brain peak concentration above plasma IC50” value ([3]; 40 mg/kg BW i.v.) was “approximately 40 fold” and the “Peak concentration in the brain after correction for residual blood” value ([3]; 120 mg/kg BW i.v.) was 16.7 µM. The “Av. conc. in brain, calculated (corrected for residual blood)” value ([3]; 120 mg/kg BW i.v., 0 h) was 0 nmol/g and 0.00 nmol/g, the “Av. conc. in brain, measured (not corrected for residual blood)” value ([3]; 120 mg/kg BW i.v., 0 h) was 22.2 nmol/g and the “Av. conc. in brain, calculated (corrected for residual blood)” value ([3]; 120 mg/kg BW i.v., 0.5 h) was 16.7 nmol/g. The “Av. conc. in brain, measured (not corrected for residual blood)” value ([3]; 120 mg/kg BW i.v., 0.5 h) was 25.8 nmol/g, the “Av. conc. in brain, calculated (corrected for residual blood)” value ([3]; 120 mg/kg BW i.v., 2 h) was 15.3 nmol/g and the “Av. conc. in brain, measured (not corrected for residual blood)” value ([3]; 120 mg/kg BW i.v., 2 h) was 17.1 nmol/g. For the same molecule, the “Av. conc. in brain, calculated (corrected for residual blood)” value ([3]; 120 mg/kg BW i.v., 6 h) was 5.0 nmol/g and 4.96 nmol/g, the “Av. conc. in brain, measured (not corrected for residual blood)” value ([3]; 120 mg/kg BW i.v., 6 h) was 5.36 nmol/g and the “Av. conc. in brain, calculated (corrected for residual blood)” value ([3]; 120 mg/kg BW i.v., 12 h) was 1.0 nmol/g and 1.00 nmol/g. The “Av. conc. in brain, measured (not corrected for residual blood)” value ([3]; 120 mg/kg BW i.v., 12 h) was 1.11 nmol/g, the “Av. conc. in brain, calculated (corrected for residual blood)” value ([3]; 120 mg/kg BW i.v., 24 h) was 0.02 nmol/g and the “Av. conc. in brain, measured (not corrected for residual blood)” value ([3]; 120 mg/kg BW i.v., 24 h) was 0.03 nmol/g. For the same molecule, the “Brain peak concentration above plasma IC50” value ([3]; 120 mg/kg BW i.v.) was ~450 fold, the “Increase of tissue penetration ratio from the low to the high dose” value ([3]; 120 vs 40 mg/kg BW i.v.) was 1.63 fold and the AUMC ([3]; brain, 40 mg/kg BW i.v.) was 39.2 nmol x h^2/mL. For the same molecule, the AUC ([3]; brain, 40 mg/kg BW i.v., 24 h) was 10.6 nmol x h/mL, the AUMC ([3]; brain, 120 mg/kg BW i.v.) was 395 nmol x h^2/mL and the AUC ([3]; brain, 120 mg/kg BW i.v., 24 h) was 115 nmol x h/mL. The “Time of peak plasma values” ([3]; first sampling time point, 40 and 120 mg/kg BW i.v.) was 0 h, the “Entry into brain tissue” value ([3]; hCETPtg mice, i.v. injection) was “does enter the mouse brain tissue” and the AUMC ([3]; liver, 40 mg/kg BW i.v.) was 1183 nmol x h^2/mL. For the same molecule, the AUC ([3]; liver, 40 mg/kg BW i.v., 24 h) was 267 nmol x h/mL, the “t1/2β (half-life)” value ([3]; liver, 40 mg/kg BW i.v., 40 mg/kg) was 3.0 h and the AUMC ([3]; liver, 120 mg/kg BW i.v.) was 3167 nmol x h^2/mL. For the same molecule, the AUC ([3]; liver, 120 mg/kg BW i.v., 24 h) was 881 nmol x h/mL, the “Kβ (elimination rate constant)” value [3, 4] was 0.2 h⁻¹ and the “t1/2β (half-life)” value [3, 4] was 3.2 h. It also gave a k el [3, 5] of 5.56e-05 s⁻¹, a half-life [3, 5] of 2.8 h and a k el [3, 6] of 8.33e-05 s⁻¹. The half-life [3, 6] was 2.5 h, the Kp ([3]; male, hCETPtg (C57BL/6J background), mouse, brain, iv, 40 mg/kg BW i.v.) was 0.08 and the Kp ([3]; male, hCETPtg (C57BL/6J background), mouse, brain, iv, 120 mg/kg BW i.v.) was 0.13. For the same molecule, the Tmax ([3]; male, hCETPtg (C57BL/6J background), mouse, brain, iv, both doses, 40 and 120 mg/kg BW i.v., read-out: Time of peak concentration in the brain) was 0.5 h, the MRT ([3]; male, hCETPtg (C57BL/6J background), mouse, iv, brain, 40 mg/kg BW i.v.) was 3.7 h and the MRT ([3]; male, hCETPtg (C57BL/6J background), mouse, iv, brain, 120 mg/kg BW i.v.) was 3.4 h. For the same molecule, the MRT ([3]; male, hCETPtg (C57BL/6J background), mouse, iv, liver, 40 mg/kg BW i.v.) was 4.4 h, the MRT ([3]; male, hCETPtg (C57BL/6J background), mouse, iv, liver, 120 mg/kg BW i.v.) was 3.6 h and the clearance [3, 7] was 0.157 mL/min. The MRT [3, 7] was 2 h, the Vd [3, 7] was 0.0185 L and the clearance [3, 8] was 0.055 mL/min. The MRT [3, 8] was 1.6 h, the Vd [3, 8] was 0.0053 L and the k el [3, 9] was 5.56e-05 s⁻¹. The half-life [3, 9] was 2.8 h, the k el [3, 10] was 8.33e-05 s⁻¹ and the half-life [3, 10] was 2.5 h. For the same molecule, the k el [3, 11] was 0.000111 s⁻¹, the half-life [3, 11] was 2.3 h and the k el [3, 12] was 5.56e-05 s⁻¹. For the same molecule, the half-life [3, 12] was 3 h, the AUMC ([3]; plasma, 40 mg/kg BW i.v.) was 398 nmol x h^2/mL and the Kα ([3]; plasma, 40 mg/kg BW i.v.) was 6.5 h⁻¹. The t1/2α ([3]; plasma, 40 mg/kg BW i.v.) was 0.1 h, the AUC ([3]; plasma, 40 mg/kg BW i.v., 24 h) was 203 nmol x h/mL and the AUMC ([3]; plasma, 120 mg/kg BW i.v.) was 2297 nmol x h^2/mL. It also gave a Kα ([3]; plasma, 120 mg/kg BW i.v.) of 1.8 h⁻¹, a t1/2α ([3]; plasma, 120 mg/kg BW i.v.) of 0.4 h and an AUC ([3]; plasma, 120 mg/kg BW i.v., 24 h) of 1418 nmol x h/mL.
